From PubChem BioAssay AID250 (DTP/NCI, 2004)
Where “and” joins values, the source holds several entries; their conditions need not be identical. Equal values may be shown once. Toxic doses and inconclusive results are not listed.

System: BDF1 mice, L1210 leukemia sc, survival T/C
Assay: NCI In Vivo Anticancer Drug Screen. Data for tumor model L1210 Leukemia (subcutaneous) in B6D2F1 (BDF1) mice
Conditions: higher = longer survival
Summary of the method: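 Read-out: T/C ratio, i.e. survival or tumor size in treated mice over that in vehicle-treated controls, from mice bearing transplantable tumors.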

## S=c1nc[nH]c2nc[nH]c12
endpoint: mean survival time, dose: 60.0 mg/kg/injection, schedule: Q01DX001 (ip), vehicle: saline
  T/C: 106 % of control
endpoint: mean survival time, dose: 90.0 mg/kg/injection, schedule: Q01DX001 (ip), vehicle: saline
  T/C: 110 % of control
endpoint: mean survival time, dose: 120.0 mg/kg/injection, schedule: Q01DX001 (ip), vehicle: saline
  T/C: 110 % of control
endpoint: mean survival time, dose: 240.0 mg/kg/injection, schedule: Q01DX001 (ip), vehicle: saline
  T/C: 116 % of control
endpoint: median survival time, dose: 0.65 mg/kg/injection, schedule: Q02DX Z (sc), vehicle: other
  T/C: 116 % of control
endpoint: median survival time, dose: 5.0 mg/kg/injection, schedule: Q01DX009 (sc), vehicle: other
  T/C: 109 % of control
endpoint: median survival time, dose: 5.0 mg/kg/injection, schedule: Q## X Z (sc), vehicle: other
  T/C: 105 % of control
endpoint: median survival time, dose: 10.0 mg/kg/injection, schedule: Q01DX009 (sc), vehicle: other
  T/C: 113 % of control
endpoint: median survival time, dose: 10.0 mg/kg/injection, schedule: Q01DX Z (sc), vehicle: methylcellulose (MC)
  T/C: 105 % of control
endpoint: median survival time, dose: 12.5 mg/kg/injection, schedule: Q01DX012 (ip), vehicle: other
  T/C: 122 % of control
endpoint: median survival time, dose: 14.0 mg/kg/injection, schedule: Q01DX Z (ip), vehicle: other
  T/C: 100 % of control
endpoint: median survival time, dose: 14.0 mg/kg/injection, schedule: Q01DX Z (oral), vehicle: methylcellulose (MC)
  T/C: 100 % of control and 104 % of control
endpoint: median survival time, dose: 14.0 mg/kg/injection, schedule: Q01DX Z (sc), vehicle: other
  T/C: 100 % of control (2×) and 110 % of control
endpoint: median survival time, dose: 14.0 mg/kg/injection, schedule: Q#A X Z (sc), vehicle: other
  T/C: 105 % of control and 115 % of control
endpoint: median survival time, dose: 17.0 mg/kg/injection, schedule: Q01DX Z (oral), vehicle: methylcellulose (MC)
  T/C: 95 % of control
endpoint: median survival time, dose: 17.0 mg/kg/injection, schedule: Q01DX Z (sc), vehicle: methylcellulose (MC)
  T/C: 100 % of control and 110 % of control
endpoint: median survival time, dose: 20.0 mg/kg/injection, schedule: Q01DX009 (sc), vehicle: other
  T/C: 124 % of control
endpoint: median survival time, dose: 23.0 mg/kg/injection, schedule: Q01DX Z (ip), vehicle: other
  T/C: 100 % of control
endpoint: median survival time, dose: 23.0 mg/kg/injection, schedule: Q01DX Z (oral), vehicle: methylcellulose (MC)
  T/C: 100 % of control
endpoint: median survival time, dose: 23.0 mg/kg/injection, schedule: Q01DX Z (sc), vehicle: methylcellulose (MC)
  T/C: 109 % of control
endpoint: median survival time, dose: 23.0 mg/kg/injection, schedule: Q02DX Z (sc), vehicle: other
  T/C: 94 % of control
endpoint: median survival time, dose: 23.0 mg/kg/injection, schedule: Q#A X Z (sc), vehicle: other
  T/C: 105 % of control
endpoint: median survival time, dose: 28.0 mg/kg/injection, schedule: Q01DX Z (oral), vehicle: methylcellulose (MC)
  T/C: 100 % of control
endpoint: median survival time, dose: 28.0 mg/kg/injection, schedule: Q01DX Z (sc), vehicle: methylcellulose (MC)
  T/C: 109 % of control
endpoint: median survival time, dose: 28.0 mg/kg/injection, schedule: Q01DX Z (sc), vehicle: other
  T/C: 110 % of control
endpoint: median survival time, dose: 38.9 mg/kg/injection, schedule: Q01DX Z (sc), vehicle: methylcellulose (MC)
  T/C: 150 % of control
endpoint: median survival time, dose: 38.9 mg/kg/injection, schedule: Q01DX Z (sc), vehicle: other
  T/C: 100 % of control and 105 % of control
endpoint: median survival time, dose: 39.0 mg/kg/injection, schedule: Q01DX001 (sc), vehicle: other
  T/C: 105 % of control
endpoint: median survival time, dose: 39.0 mg/kg/injection, schedule: Q01DX Z (ip), vehicle: other
  T/C: 110 % of control
endpoint: median survival time, dose: 39.0 mg/kg/injection, schedule: Q01DX Z (oral), vehicle: methylcellulose (MC)
  T/C: 104 % of control
endpoint: median survival time, dose: 39.0 mg/kg/injection, schedule: Q02DX Z (sc), vehicle: other
  T/C: 105 % of control
endpoint: median survival time, dose: 39.0 mg/kg/injection, schedule: Q07DX Z (sc), vehicle: other
  T/C: 105 % of control
endpoint: median survival time, dose: 39.0 mg/kg/injection, schedule: Q## X Z (sc), vehicle: other
  T/C: 100 % of control
endpoint: median survival time, dose: 39.0 mg/kg/injection, schedule: Q#A X Z (sc), vehicle: other
  T/C: 110 % of control
endpoint: median survival time, dose: 47.0 mg/kg/injection, schedule: Q01DX Z (oral), vehicle: methylcellulose (MC)
  T/C: 104 % of control
endpoint: median survival time, dose: 47.0 mg/kg/injection, schedule: Q01DX Z (sc), vehicle: other
  T/C: 110 % of control
endpoint: median survival time, dose: 50.0 mg/kg/injection, schedule: Q01DX012 (ip), vehicle: other
  T/C: 155 % of control
endpoint: median survival time, dose: 60.0 mg/kg/injection, schedule: Q01DX001 (ip), vehicle: saline
  T/C: 100 % of control
endpoint: median survival time, dose: 64.8 mg/kg/injection, schedule: Q01DX Z (sc), vehicle: other
  T/C: 150 % of control
endpoint: median survival time, dose: 65.0 mg/kg/injection, schedule: Q01DX001 (sc), vehicle: other
  T/C: 105 % of control and 115 % of control
endpoint: median survival time, dose: 65.0 mg/kg/injection, schedule: Q01DX Z (oral), vehicle: methylcellulose (MC)
  T/C: 104 % of control and 115 % of control
endpoint: median survival time, dose: 65.0 mg/kg/injection, schedule: Q01DX Z (sc), vehicle: methylcellulose (MC)
  T/C: 154 % of control
endpoint: median survival time, dose: 65.0 mg/kg/injection, schedule: Q02DX Z (sc), vehicle: other
  T/C: 105 % of control and 115 % of control
endpoint: median survival time, dose: 65.0 mg/kg/injection, schedule: Q07DX Z (sc), vehicle: other
  T/C: 105 % of control and 115 % of control
endpoint: median survival time, dose: 65.0 mg/kg/injection, schedule: Q## X Z (sc), vehicle: other
  T/C: 100 % of control
endpoint: median survival time, dose: 78.0 mg/kg/injection, schedule: Q01DX Z (oral), vehicle: methylcellulose (MC)
  T/C: 113 % of control
endpoint: median survival time, dose: 78.0 mg/kg/injection, schedule: Q01DX Z (sc), vehicle: other
  T/C: 155 % of control
endpoint: median survival time, dose: 80.0 mg/kg/injection, schedule: Q01DX009 (ip), vehicle: other
  T/C: 150 % of control
endpoint: median survival time, dose: 80.0 mg/kg/injection, schedule: Q01DX009 (sc), vehicle: other
  T/C: 155 % of control
endpoint: median survival time, dose: 90.0 mg/kg/injection, schedule: Q01DX001 (ip), vehicle: saline
  T/C: 110 % of control
endpoint: median survival time, dose: 108.0 mg/kg/injection, schedule: Q01DX001 (sc), vehicle: other
  T/C: 115 % of control
endpoint: median survival time, dose: 108.0 mg/kg/injection, schedule: Q01DX Z (ip), vehicle: other
  T/C: 155 % of control
endpoint: median survival time, dose: 108.0 mg/kg/injection, schedule: Q01DX Z (oral), vehicle: methylcellulose (MC)
  T/C: 105 % of control and 118 % of control
endpoint: median survival time, dose: 108.0 mg/kg/injection, schedule: Q02DX Z (sc), vehicle: other
  T/C: 152 % of control
endpoint: median survival time, dose: 108.0 mg/kg/injection, schedule: Q07DX Z (sc), vehicle: other
  T/C: 115 % of control
endpoint: median survival time, dose: 108.0 mg/kg/injection, schedule: Q## X Z (sc), vehicle: other
  T/C: 115 % of control
endpoint: median survival time, dose: 120.0 mg/kg/injection, schedule: Q01DX001 (ip), vehicle: saline
  T/C: 110 % of control
endpoint: median survival time, dose: 130.0 mg/kg/injection, schedule: Q01DX Z (sc), vehicle: methylcellulose (MC)
  T/C: 109 % of control
endpoint: median survival time, dose: 130.0 mg/kg/injection, schedule: Q01DX Z (sc), vehicle: other
  T/C: 150 % of control
endpoint: median survival time, dose: 160.0 mg/kg/injection, schedule: Q01DX009 (sc), vehicle: other
  T/C: 102 % of control
endpoint: median survival time, dose: 180.0 mg/kg/injection, schedule: Q01DX001 (sc), vehicle: other
  T/C: 121 % of control
endpoint: median survival time, dose: 180.0 mg/kg/injection, schedule: Q01DX Z (oral), vehicle: methylcellulose (MC)
  T/C: 150 % of control
endpoint: median survival time, dose: 180.0 mg/kg/injection, schedule: Q07DX Z (sc), vehicle: other
  T/C: 121 % of control
endpoint: median survival time, dose: 200.0 mg/kg/injection, schedule: Q01DX012 (ip), vehicle: other
  T/C: 100 % of control
endpoint: median survival time, dose: 216.0 mg/kg/injection, schedule: Q01DX Z (oral), vehicle: methylcellulose (MC)
  T/C: 109 % of control
endpoint: median survival time, dose: 216.0 mg/kg/injection, schedule: Q01DX Z (sc), vehicle: methylcellulose (MC)
  T/C: 109 % of control
endpoint: median survival time, dose: 216.0 mg/kg/injection, schedule: Q01DX Z (sc), vehicle: other
  T/C: 150 % of control
endpoint: median survival time, dose: 240.0 mg/kg/injection, schedule: Q01DX001 (ip), vehicle: saline
  T/C: 110 % of control
endpoint: median survival time, dose: 300.0 mg/kg/injection, schedule: Q01DX Z (oral), vehicle: methylcellulose (MC)
  T/C: 150 % of control and 154 % of control
endpoint: median survival time, dose: 300.0 mg/kg/injection, schedule: Q01DX Z (sc), vehicle: methylcellulose (MC)
  T/C: 120 % of control
endpoint: median survival time, dose: 300.0 mg/kg/injection, schedule: Q07DX Z (sc), vehicle: other
  T/C: 121 % of control
endpoint: median survival time, dose: 300.0 mg/kg/injection, schedule: Q## X Z (sc), vehicle: other
  T/C: 157 % of control
endpoint: median survival time, dose: 360.0 mg/kg/injection, schedule: Q01DX Z (oral), vehicle: methylcellulose (MC)
  T/C: 122 % of control
endpoint: median survival time, dose: 500.0 mg/kg/injection, schedule: Q01DX Z (oral), vehicle: other
  T/C: 120 % of control
